Among the data in patent US9839629B2, “Inhibitors of the renal outer medullary potassium channel” (Merck Sharp & Dohme Corp., priority 2013, dated 2017) are IC50 values, retold here.

For this test, the target named is T1, ROMK (Kir1.1) channel (Homo sapiens, UniProt P48048).
T1 sequence (P48048 1-391): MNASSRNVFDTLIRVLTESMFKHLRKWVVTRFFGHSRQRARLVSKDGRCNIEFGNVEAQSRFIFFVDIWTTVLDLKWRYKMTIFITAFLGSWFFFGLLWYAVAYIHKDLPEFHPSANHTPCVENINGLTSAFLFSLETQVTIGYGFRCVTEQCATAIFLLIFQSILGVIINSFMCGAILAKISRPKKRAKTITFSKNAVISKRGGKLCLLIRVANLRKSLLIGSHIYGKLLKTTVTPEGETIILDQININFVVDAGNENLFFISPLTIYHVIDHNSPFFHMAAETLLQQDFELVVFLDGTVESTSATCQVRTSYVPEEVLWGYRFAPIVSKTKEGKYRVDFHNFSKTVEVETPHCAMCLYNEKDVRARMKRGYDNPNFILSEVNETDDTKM
Kind of test: Thallium Flux Assay. The test is classed as cell-based. On the procedure:
A Thallium Flux Assay was performed on each of the final product compounds in the Examples. When the final product of an Example was an HCl salt, the salt was run in the Assay. This assay has been described previously; see, e.g., PCT Published Application WO 2013/062900.
Usually IC50 stands for the concentration that inhibits the measured activity by half. Lower therefore signals greater potency in that assay. Consider `Cc1c([C@@H](O)CN2CCC3(CC2)CCN(C2=CC(=O)OC2)C(C)C3)ccc2c1COC2=O` (single isomer, unassigned) [Example 32], for which inhibition was half-maximal at 49 nM (IC50).
Compound `Cc1c([C@@H](O)CN2CCC3(CC2)CCN(C2=CC(=O)OC2)C(C)C3)ccc2c1COC2=O` (single isomer, unassigned) [Example 33] gave an IC50 of 42 nM. The IC50 values of the last two compounds are within 1.5-fold of each other.
The value for `Cc1cc(-n2cnnn2)cnc1C(O)CN1CCC2(CC1)CCN(C1=CC(=O)OC1)CC2` (stereo in doubt) [Example 21, (S)-4-(9-(2-hydroxy-2-(3-methyl-5-(1H-tetrazol-1-yl)pyridin-2-yl)ethyl)-3,9-diazaspiro[5.5]undecan-3-yl)furan-2(5H)-one] was 181 nM.
The value for `Cc1nc(-n2cnnn2)ccc1[C@@H](O)CN1CCC2(CC1)CCN(C1=C(C3CC3)C(=O)OC1)CC2` (stereo in doubt) [Example 43, 3-cyclopropyl-4-(9-(2-hydroxy-2-(2-methyl-6-(1H-tetrazol-1-yl)pyridin-3-yl)ethyl)-3,9-diazaspiro[5.5]undecan-3-yl)furan-2(5H)-one] was 16 nM; that for `O=C1C=C(N2CCC3(CCN(CCc4ccc5c(c4)COC5=O)CC3)CC2)CO1` [Example 1, 5-(2-(9-(5-oxo-2,5-dihydrofuran-3-yl)-3,9-diazaspiro[5.5]undecan-3-yl)ethyl)isobenzofuran-1(3H)-one] was 17 nM; that for `Cc1c(CCN2CCC3(CC2)CCN(C2=CC(=O)OC2)CC3)ccc2c1COC2=O` [Example 2, 4-methyl-5-(2-(9-(5-oxo-2,5-dihydrofuran-3-yl)-3,9-diazaspiro[5.5]undecan-3-yl)ethyl)isobenzofuran-1(3H)-one] was 31 nM.
To `Cc1c(CCN2CCC3(CC2)CCN(c2c(C)c(=O)c2=O)CC3)ccc2c1COC2=O` [Example 3, 3-methyl-4-(9-(2-(4-methyl-1-oxo-1,3-dihydroisobenzofuran-5-yl)ethyl)-3,9-diazaspiro[5.5]undecan-3-yl)cyclobut-3-ene-1,2-dione] belongs 93 nM; to `CO[C@@H](CN1CCC2(CC1)CCN(c1c(C)c(=O)c1=O)CC2)c1ccc2c(c1C)COC2=O` [Example 4, (R)-3-(9-(2-methoxy-2-(4-methyl-1-oxo-1,3-dihydroisobenzofuran-5-yl)ethyl)-3,9-diazaspiro[5.5]undecan-3-yl)-4-methylcyclobut-3-ene-1,2-dione], 230 nM.
With `Cc1c([C@H](O)CN2CCC3(CC2)CCN(C2=CC(=O)OC2)CC3)ccc2c1COC2=O` [Example 5, (S)-5-(1-hydroxy-2-(9-(5-oxo-2,5-dihydrofuran-3-yl)-3,9-diazaspiro[5.5]undecan-3-yl)ethyl)-4-methylisobenzofuran-1(3H)-one], inhibition was half-maximal at 63 nM (IC50).
The value for `CC1=C(N2CCC3(CCN(C[C@H](O)c4cccc(-n5cnnn5)n4)CC3)CC2)COC1=O` [Example 6A, (S)-4-(9-(2-(6-(1H-tetrazol-1-yl)pyridin-2-yl)-2-hydroxyethyl)-3,9-diazaspiro[5.5]undecan-3-yl)-3-methylfuran-2(5H)-one] was 22 nM.
To `CC1=C(N2CCC3(CCN(C[C@@H](O)c4cccc(-n5cnnn5)n4)CC3)CC2)COC1=O` [Example 6B, (R)-4-(9-(2-(6-(1H-tetrazol-1-yl)pyridin-2-yl)-2-hydroxyethyl)-3,9-diazaspiro[5.5]undecan-3-yl)-3-methylfuran-2(5H)-one] belongs 20 nM; to `CC1=C(N2CCC3(CCN(C[C@H](O)c4ccc5c(c4C)COC5=O)CC3)CC2)COC1=O` [Example 7, (R)-5-(1-hydroxy-2-(9-(4-methyl-5-oxo-2,5-dihydrofuran-3-yl)-3,9-diazaspiro[5.5]undecan-3-yl)ethyl)-4-methylisobenzofuran-1(3H)-one], 13 nM.
To `Cc1c([C@@H](O)CN2CCC3(CC2)CCN(C2=CC(=O)OC2)CC3)ccc2c1COC2=O` [Example 8, (R)-5-(1-hydroxy-2-(9-(5-oxo-2,5-dihydrofuran-3-yl)-3,9-diazaspiro[5.5]undecan-3-yl)ethyl)-4-methylisobenzofuran-1(3H)-one] belongs 49 nM; to `COc1cc(C#N)ncc1[C@@H](O)CN1CCC2(CC1)CCN(C1=CC(=O)OC1)CC2` [Example 9, (R)-5-(1-hydroxy-2-(9-(5-oxo-2,5-dihydrofuran-3-yl)-3,9-diazaspiro[5.5]undecan-3-yl)ethyl)-4-methoxypicolinonitrile], 220 nM; to `C[C@@H]1Cc2cc(C(O)CN3CCC4(CC3)CCN(C3=CC(=O)OC3)CC4)ccc2C(=O)O1` (stereo partly drawn) [Example 10, (3R)-6-(1-hydroxy-2-(9-(5-oxo-2,5-dihydrofuran-3-yl)-3,9-diazaspiro[5.5]undecan-3-yl)ethyl)-3-methylisochroman-1-one], 596 nM.
`C[C@H]1Cc2cc([C@@H](O)CN3CCC4(CC3)CCN(C3=CC(=O)OC3)CC4)ccc2C(=O)O1` [Example 11, (S)-6-((R)-1-hydroxy-2-(9-(5-oxo-2,5-dihydrofuran-3-yl)-3,9-diazaspiro[5.5]undecan-3-yl)ethyl)-3-methylisochroman-1-one] yielded an IC50 of 180 nM.
Take `C[C@H]1Cc2cc([C@H](O)CN3CCC4(CC3)CCN(C3=CC(=O)OC3)CC4)ccc2C(=O)O1` [Example 12, (S)-6-((S)-1-hydroxy-2-(9-(5-oxo-2,5-dihydrofuran-3-yl)-3,9-diazaspiro[5.5]undecan-3-yl)ethyl)-3-methylisochroman-1-one]: the IC50 turned out to be 685 nM. Compared with the last compound, the IC50 is about 3.8-fold higher.
The value for `Cc1nc(-n2cnnn2)ccc1[C@@H](O)CN1CCC2(CC1)CCN(C1=CC(=O)OC1)CC2` [Example 13, (R)-4-(9-(2-hydroxy-2-(2-methyl-6-(1H-tetrazol-1-yl)pyridin-3-yl)ethyl)-3,9-diazaspiro[5.5]undecan-3-yl)furan-2(5H)-one] was 14 nM; that for `Cc1nc(-n2cnnn2)ccc1[C@H](O)CN1CCC2(CC1)CCN(C1=CC(=O)OC1)CC2` [Example 14, (S)-4-(9-(2-hydroxy-2-(2-methyl-6-(1H-tetrazol-1-yl)pyridin-3-yl)ethyl)-3,9-diazaspiro[5.5]undecan-3-yl)furan-2(5H)-one] was 24 nM; that for `O=C1C=C(N2CCC3(CCN(CC(O)c4cnc(-n5cnnn5)nc4)CC3)CC2)CO1` (centres unmarked) [Example 15, 4-(9-(2-(2-(1H-tetrazol-1-yl)pyrimidin-5-yl)-2-hydroxyethyl)-3,9-diazaspiro[5.5]undecan-3-yl)furan-2(5H)-one] was 443 nM.
The value for `O=C1C=C(N2CCC3(CCN(C[C@H](O)c4ccc(-n5cnnn5)nn4)CC3)CC2)CO1` [Example 16, (S)-4-(9-(2-(6-(1H-tetrazol-1-yl)pyridazin-3-yl)-2-hydroxyethyl)-3,9-diazaspiro[5.5]undecan-3-yl)furan-2(5H)-one] was 41 nM; that for `O=C1C=C(N2CCC3(CCN(C[C@@H](O)c4ccc(-n5cnnn5)nn4)CC3)CC2)CO1` [Example 17, (R)-4-(9-(2-(6-(1H-tetrazol-1-yl)pyridazin-3-yl)-2-hydroxyethyl)-3,9-diazaspiro[5.5]undecan-3-yl)furan-2(5H)-one] was 91 nM.
The compound `O=C1C=C(N2CCC3(CCN(C[C@H](O)c4ccc(-n5cnnn5)nc4)CC3)CC2)CO1` [Example 18, (R)-4-(9-(2-(6-(1H-tetrazol-1-yl)pyridin-3-yl)-2-hydroxyethyl)-3,9-diazaspiro[5.5]undecan-3-yl)furan-2(5H)-one] showed an IC50 of 16 nM. This IC50 is about 5.7-fold lower than that of the compound before.
